Reference: US20200190202A1, “Reprogramming of CD8 T Cells with CXCL12 Signaling Inhibitors” (priority 2017, published 2020)
Where two headings read alike, the source gives them in different places.

Columns and labels:
[1] = system: 40 L mouse mesothelioma; experiment: Intraperitoneal malignant mesothelioma model, tumor growth and survival, 40 L; assay type: in vivo; details: 40 L model; compared to saline control
[2] = system: AE17 mouse mesothelioma; experiment: Intraperitoneal malignant mesothelioma model, tumor growth and survival, AE17; assay type: in vivo; details: compared to saline control
[3] = system: T cells in spleens and tumors of 40 L tumor-bearing mice; experiment: Immune profiling by flow cytometry, 40 L tumor-bearing mice; assay type: in vivo, mouse; details: for proportion of CD8+ T cells in total live cells: compared to saline control
[4] = system: T cells in spleens, lymph nodes and tumors of AE17 tumor-bearing mice; experiment: Immune profiling by flow cytometry, AE17 tumor-bearing mice; assay type: in vivo, mouse; details: for proportion of CD8+ T cells in total live cells: compared to saline control
[5] = system: CD8+ T cells of 40 L tumor-bearing mice; experiment: Ex-vivo restimulation with recombinant mesothelin and intracellular IFN-γ detection, 40 L mice; assay type: in vivo, mouse; details: splenic CD8+ T cells; 40 L model; compared to saline
[6] = system: CD8+ T cells of AE17 tumor-bearing mice; experiment: Ex-vivo restimulation with recombinant mesothelin and intracellular IFN-γ detection, AE17 mice; assay type: in vivo, mouse; details: AE17 model, compared to saline
[7] = system: GFP-Foxp3 expressing CD4+ splenocytes (Treg cells); details: AMD3100 5 μg/ml, 24 hours
[8] = system: ovarian cancer; details: monotherapy in ovarian tumor-bearing mice; cited from earlier work
[9] = 0.01-0.02 mg/kg subcutaneously twice daily for 6 months; cited from earlier work
[10] = tumors, 40 L model, compared to saline
[11] = lymph nodes, AE17 model, compared to saline
[12] = tumors, AE17 model, compared to saline

c1cc(CN2CCCNCCNCCCNCC2)ccc1CN1CCCNCCNCCCNCC1 [AMD3100, plerixafor]
animal survival [1]: only modest benefit | animal survival [2]: only modest benefit | proportion of PD-1-expressing CD8+ T cells ([3]; spleens, 40 L model, compared to saline): significantly fewer | proportion of CD8+ T cells in total live cells ([3]; spleens, 40 L model): did not increase | proportions of Treg cells ([3]; spleens, 40 L tumor-bearing mice): did not alter | IL-2+ CD40L+ cells among the Foxp3+ CD25− Treg population ([3]; tumors of 40 L mice): significantly more | ratio of CD25− cells to CD25+ cells within the Foxp3+ population ([3]; tumors of 40 L mice): significantly increased | proportion of PD-1-expressing CD8+ T cells [3, 10]: significantly fewer | proportions of Treg [3, 10]: significantly decreased | ratio of CD8+ T cells to Treg [3, 10]: increased | proportion of CD8+ T cells in total live cells ([3]; tumors, 40 L model): did not increase | IL-2+ CD40L+ cells among the Foxp3+ CD25− Treg population ([4]; lymph nodes of AE17 mice): significantly more | ratio of CD25− cells to CD25+ cells within the Foxp3+ population ([4]; lymph nodes, AE17 model): significantly increased | cell ratio of CD8+ T cells to Treg cells [4, 11]: significantly increased | proportion of PD-1-expressing CD8+ T cells [4, 11]: significantly fewer | proportion of CD8+ T cells in total live cells ([4]; lymph nodes, AE17 model): did not increase | Treg in the lymph nodes ([4]; lymph nodes, AE17 tumor-bearing mice): generally reduced | proportion of PD-1-expressing CD8+ T cells ([4]; spleens, AE17 model, compared to saline): significantly fewer | proportion of CD8+ T cells in total live cells ([4]; spleens, AE17 model): did not increase | proportion of PD-1-expressing CD8+ T cells [4, 12]: significantly fewer | proportions of Treg [4, 12]: significantly decreased | ratio of CD8+ T cells to Treg [4, 12]: increased | proportion of CD8+ T cells in total live cells ([4]; tumors, AE17 model): did not increase | mesothelin-specific IFN-γ expression in CD8+ T cells [5]: did not enhance | mesothelin-specific IFN-γ expression in CD8+ T cells ([6]; lymph node CD8+ T cells): did not enhance | mesothelin-specific IFN-γ expression in CD8+ T cells ([6]; splenic CD8+ T cells): did not enhance | conversion of Foxp3+ CD25− Treg into IL-2+ CD40L+ cells ([7]; anti-CD3/CD28 antibodies 1 μg/ml, P=0.0015): converted more | ratio of the proportion of CD25− cells to CD25+ cells in the Foxp3+ CD4+ population ([7]; anti-CD3/CD28 antibodies 1 μg/ml, P=0.0017): significantly increased | ratio of the proportion of CD25− cells to CD25+ cells in the Foxp3+ CD4+ population ([7]; no anti-CD3/CD28 stimulation): did not change | intratumoral Treg cells [8]: selective reduction | survival [8]: survival advantage | safety of long-term, low-dose treatment [9]: safety
